These results are taken from ChEMBL document CHEMBL3507680, “University of Dundee, Gates Library screen for HepG2 cell viability”.

Structures are written as SMILES.

A short description of the data set: Human HepG2 cell viability assay in 384 well format. The settings on record: HepG2 cells, read-out: Inhibition. Also on record: dose 125 nL, time 70.5 hour; concentration not given beside the values. Format: toxicity, cell-based.

With `CC(C)Oc1cccc(C(=O)C2CCCN(C(=O)c3ccnn3C)C2)c1` (stereo not given), the cytotoxicity at 70.5 h stood at 19.8%.
The value for `O=C(NCCCn1cccn1)C1CCC(=O)N(Cc2ccccc2F)C1` (stereo not given) was 4.27%.
Next, `Cc1cc(C)c(CNC(=O)NCc2nnc3n2CCCCC3)c(=O)[nH]1`: -5.09%.
Take `CC1CCN(C(=O)CSCc2noc(C(C)C)n2)CC1`: the cytotoxicity at 70.5 h was -4.52%.
Next, `Cn1cc(C(O)CNC(=O)Nc2cc(F)ccc2-n2cccn2)cn1` (stereo not given): 5.74%; `CCNC(=O)N(C)C1CCCc2nc(C)sc21` (stereo not given): -2.26%; `CC(=O)N1CCN(C(=O)NCCCN(C)S(C)(=O)=O)CC1`: -5.97%.
As to `CC(=O)N1CCCN(C(=O)NCCCN(C)S(C)(=O)=O)CC1`, the cytotoxicity at 70.5 h was -8.8%.
Take `CC1CCN(C(=O)CSCc2nc(C3CC3)no2)CC1`: the cytotoxicity at 70.5 h is -2.56%.
Next, `CC(C)Cc1nc(CSCC(=O)N2CCC(C)CC2)no1`: 3.72%; `Cn1ncnc1NCc1ccc(F)cc1`: -9.9%.
The value for `Cc1cc(=O)n2nc(Oc3ccc(Cl)c(C)c3)sc2n1` was -6.83%.
With `CC(NC(=O)NCc1cccnc1N(C)C)c1cccs1` (stereo not given), the cytotoxicity at 70.5 h was -23.6%.
For the compound `Cc1ccc(S(=O)(=O)N2CCN(Cc3ccncc3)CC2)c(Cl)c1`, the cytotoxicity at 70.5 h is -26.7%.
Consider `CC(C)NC(=O)c1noc2c1CN(Cc1cnn(C)c1)CC2`, for which the cytotoxicity at 70.5 h is -5.58%.
As for `Cc1cccc(S(=O)(=O)N2C[C@@H]3C[C@@H](c4nc(C)no4)O[C@@H]3C2)c1`, the cytotoxicity at 70.5 h was -3.34%.
Next, `CCN(C(=O)c1nc2c(s1)CCCN2c1ccc(C)nn1)C(C)C`: -3.47%; `CC(C)CCC(=O)N1C[C@H]2CCN[C@H]2C1`: -3.29%.
The value for `Cc1csc(NC(=O)[C@@H]2C[C@H]3[C@H](CCN3S(C)(=O)=O)O2)n1` was -1.16%; that for `Cc1nocc1C(=O)N1CCOC2(COCCN(CC3CC3)C2)C1` (stereo not given) was -2.08%.
The value for `Cc1ccc(N2CC[C@H](OCC3CC3)[C@@H]2Cc2ccncc2)nn1` was -4.81%; that for `O=C(CC(F)(F)F)N1C[C@H]2CCN[C@H]2C1` was -2.74%; that for `COCc1cncc2c1CCN(C(=O)c1cscn1)C2` was 20.4%.
With `CC(=O)N1CCC2(CC1)CN(CC1CC1)c1ccc(F)cc12`, the cytotoxicity at 70.5 h is 1.47%.
Next, `CN(C)C(=O)[C@H]1CCS(=O)(=O)[C@@H]2CN(c3ncccn3)C[C@H]12`: -4.18%; `CS(=O)(=O)NCc1ncn2c1CN(C(=O)C1CCCO1)CCC2` (stereo not given): 0.98%.
Next, `COc1cc(N2C[C@@H]3COC[C@@H](Cc4nnc(C)o4)[C@@H]3C2)ncn1`: -0.141%.
The value for `Cn1c2c(c(=O)n1C)CN(C(=O)c1ccncc1F)CCC2` was 5.23%.
In the case of `Cn1c2c(c(=O)n1C)CN(C(=O)c1cccc(F)c1)CCC2`, the cytotoxicity at 70.5 h is 1.87%.
With `CCOc1ncnc2c1CCN(S(=O)(=O)c1ccccc1)CC2`, the cytotoxicity at 70.5 h is -14.4%.
For `CCOCC1CN(S(=O)(=O)c2cccc(C)c2)Cc2nccn2C1` (stereo not given), the cytotoxicity at 70.5 h was -8.99%.
As to `CCOCC1CN(S(=O)(=O)Cc2ccccc2)Cc2nccn2C1` (stereo not given), the cytotoxicity at 70.5 h was -3.22%.
Next, `CC(C)n1c2ccccc2c2c1cc(C(=O)N(C)C)n2C(=O)N(C)C`: -0.266%; `CS(=O)(=O)N1C[C@H]2N(c3ncccn3)CCC[C@@]2(C(=O)NCC2CC2)C1`: -7.17%.
Next, `O=C1CCCN1Cc1nnc2n1CCCN(C(=O)c1ccc[nH]1)C2`: 5.33%; `COCCN(C)C(C(=O)O)c1ccc(F)c(Cl)c1` (stereo not given): 30.8%.
Next, `O=C(O)c1cc(-c2cncnc2)cc(S(=O)(=O)N2CCCCCC2)c1`: -10.5%; `O=C(O)CCc1cn(C2CCN(c3ncccc3Cl)CC2)nn1`: 7.14%.
Take `Cc1cccc(C)c1OCC(C)Nc1nc(N)nc2c1CCNC2` (stereo not given): the cytotoxicity at 70.5 h was -11.5%.
The value for `CCCc1ccc(CN2CCC3(CCC(=O)N(CCCOC)C3)CC2)o1` was 20.6%; that for `Cc1nc(CN2C[C@@H](CN3CCOCC3)[C@@H](CO)C2)c2ccccn12` was 16.5%; that for `Nc1ccnc(N2CCCC(CCc3ccccc3)(C(=O)O)C2)n1` (stereo not given) was -3.28%.
Take `CS(=O)(=O)N1C[C@@H]2CC[C@H](C1)N(CCC(=O)NCc1ccccc1F)C2`: the cytotoxicity at 70.5 h was found to be 21.2%.
The value for `CCCC(Cn1cnc(-c2ccccc2)c1-c1cncn1CC)N(C)C` (stereo not given) was -0.815%; that for `CN(CCc1ccccn1)C(=O)C(c1cccnc1)N1CCOCC1` (stereo not given) was -1.97%; that for `Cc1nc(C)c(C)c(N(C)CCCc2nccn2C)n1` was -8.93%.
The value for `CO[C@@H]1c2ccccc2C2(CCN(C(=O)CNC(=O)C(C)C)CC2)[C@H]1O` was -6.67%; that for `O=C(Cc1ccsc1)N1CCCC(CNS(=O)(=O)Cc2ccccc2)C1` (stereo not given) was -9.34%.
Next, `CCCSc1ncc(-c2nccn2CCC(N)=O)cn1`: -13.6%; `COc1ccc(-n2cc(CCO)cn2)cc1C(N)=O`: -14.7%.
As for `O=C(c1ccc2nccnc2c1)N1CCN(CCO)[C@@H]2CS(=O)(=O)C[C@@H]21`, the cytotoxicity at 70.5 h was -9.05%.
`CN(Cc1ccsc1)c1nc(-c2ccccn2)nc2c1CCNCC2`: the cytotoxicity at 70.5 h is -9.47%.
Next, `O=C(CCc1cc2n(n1)CCCN(CCc1ccccc1)C2)NC1CC1`: -11%; `CC(=O)N[C@@H]1CN(C(=O)c2ccncc2)C[C@H]1c1ccc(C)cc1`: -3.8%.
The value for `O=C1CCCCN1CCc1nc(C2(c3ccc(F)cc3)CCOC2)no1` (stereo not given) was 12.7%.
Consider `O=C(CCC1CCCN(S(=O)(=O)C2CC2)C1)Nc1ccc(Cl)cc1` (stereo not given), for which the cytotoxicity at 70.5 h is 34.5%.
Consider `CC(C)=CCN1CC2(CCN(C(=O)CCn3ccnc3C)CC2)CC1=O`, for which the cytotoxicity at 70.5 h came to 0.368%.
Next, `CCN(CC)C(=O)[C@@H]1C[C@@H](NC(=O)c2cccc(N(C)C)c2)CN1C`: 26.1%; `COc1ccccc1OC1CCN(c2nc(N)nc3[nH]cnc23)CC1`: 2.92%.
For the compound `Cc1cnc(N2CCc3c(CNc4ccnc(C)n4)cncc3C2)nc1`, the cytotoxicity at 70.5 h came to 18.6%.
Next, `Cn1cc(C(=O)NCc2cncc3c2CCN(CC2CC2)C3)cn1`: 17.9%; `CC(C)N(C)Cc1cncc2c1CCN(CC(=O)N(C)C)C2`: 20%.
The value for `CNC(=O)N1CCC2(CC1)c1ncc(-c3cccc(F)c3)n1CCN2C` was -1.6%; that for `Cc1ccc(CN2C[C@H](OCC3CCOCC3)[C@H]3COC[C@H]32)o1` was 17%; that for `CCOC(=O)[C@]12CCCN(Cc3cccs3)C[C@H]1CN(C(C)=O)C2` was -1.84%.
The value for `CN(C)CCN1C(=O)CCC12CCCN(C(=O)c1ccncc1F)C2` (stereo not given) was 15.9%.
For `Cn1cncc1C(=O)N1CCOC2(COCCN(CC3CC3)C2)C1` (stereo not given), the cytotoxicity at 70.5 h is -1.4%.
The value for `CCOCc1cncc2c1CCN(C(=O)c1cscn1)C2` was -4.56%.
In the case of `CC(C)COCc1cncc2c1CCN(C(=O)c1cscn1)C2`, the cytotoxicity at 70.5 h is -2.6%.
Next, `CC1c2ncc(Cn3cccn3)n2CCN1Cc1ccc(F)cc1` (stereo not given): -2.85%.
As to `COCCN1C(=O)C2(CCN(CC3CC3)CC2)c2ccccc21`, the cytotoxicity at 70.5 h amounted to 0.205%.
The value for `c1cnc(N2C[C@H]3CCN(CC4CC4)C[C@H]3C2)cn1` was 3.82%; that for `CC1COC2(CCN(C(=O)Cc3ccncc3)CC2)C1` (stereo not given) was -0.819%.
The value for `N#Cc1ccc(N2CCCC3(CCN(c4cncnc4)C3=O)C2)nc1` (stereo not given) was 7.49%; that for `O=C(C1CC=CC1)N1C[C@H]2CN(Cc3ccncc3)C(=O)[C@H]2C1` was 2.42%.
The value for `CCCN1CCC(c2nc3ccc(C)cn3n2)CC1` was -6.41%.
Consider `Cc1csc(CN2CCC3(CC2)COC(COCC2CC2)C3)n1` (stereo not given), for which the cytotoxicity at 70.5 h is -0.893%.
With `CCCN1CCC(c2nc3ccc(-c4cccc(F)c4)cn3n2)CC1`, the cytotoxicity at 70.5 h was -7.17%.
Next, `Cc1noc(C)c1CN1CCc2ncnc(-c3ccoc3)c2CC1`: 15.5%.
Next, `Cc1noc(C)c1CN1CCc2ncnc(-c3ccccc3)c2CC1`: 18.5%; `CN(C)CCN1C[C@@H]2CN(S(=O)(=O)c3ccccc3)C[C@@H]2C1=O`: -0.863%; `Cc1noc(C)c1CN1CCC2(CC1)C(c1cnn(C)c1)CC(=O)N2C` (stereo not given): -7.83%.
The value for `c1cncc(OC[C@]23COC[C@H]2CN(C2CCOCC2)C3)c1` was -1.59%.
`CN(Cc1ccco1)C[C@H]1OC[C@@H]2CN(c3ncc(F)cn3)CC[C@@H]21`: the cytotoxicity at 70.5 h is -1.81%.
In the case of `COCCO[C@H]1CCN(c2ccc(C)nn2)[C@H]1Cc1cccnc1`, the cytotoxicity at 70.5 h was 12.5%.
The value for `CNC(=O)N1CCC2(CC1)c1ncc(C)n1CCN2C` was -0.582%.
For `N#Cc1ccc(N2CCC3(CCC(=O)N3CCN3CCCC3)CC2)nc1`, the cytotoxicity at 70.5 h is -9.44%.
The value for `CN(C)CCN1C(=O)C2(CCN(CC3CC3)CC2)c2ccccc21` was -4.59%.
Next, `CCN1C(=O)C2(CCN(CCN(C)C)CC2)c2ccccc21`: 19.9%.
The value for `CC1c2ncc(Cn3cccn3)n2CCN1Cc1ccccn1` (stereo not given) was -1.75%; that for `c1cc(CN2C[C@@H]3OCCN(CC4CC4)[C@@H]3C2)n[nH]1` was -7.71%; that for `Cc1noc(C)c1CN1CCc2ncnc(-c3ccncc3)c2CC1` was 42.6%.
Regarding `O=C(C1CCC2(CCN(Cc3cccnc3)CC2)CO1)N1CCCC1` (stereo not given), the cytotoxicity at 70.5 h was -7.42%.
Turning to `Cn1cnc(S(=O)(=O)N2CC3(CCN(Cc4ccncc4)C3)C2)c1`, the cytotoxicity at 70.5 h is -6.66%.
In the case of `Cc1cc(C(=O)N2CCc3nc(N4CCOCC4)nc(C)c3C2)c(C)o1`, the cytotoxicity at 70.5 h was -6.78%.
